Measured values as given in patent publication US20260000654A1, “USE OF BENCYCLOQUIDIUM BROMIDE, ISOMER THEREOF AND DERIVATIVE THEREOF IN PREPARATION OF OPHTHALMIC FORMULATION” (Beijing Yingu Medicine Sci Techno Co., Ltd., priority 2023, published 2026).
Entries after “also recorded” stand apart in the source; their conditions may differ.

Test system: animal model of form-deprivation myopia (FDM)
Assay: form-deprivation myopia (FDM) model experiment on colorful guinea pigs
Conditions: for change value of ocular axial length: 0.05% eye drops once a day, after four weeks, compared with model control group; for body weight: during the experiment, among the groups
Experimental: An animal model of form-deprivation myopia (FDM) was prepared by using the monocular deprived (MD) method, i.e., covering one eye with an opaque eye patch to cause form-deprivation.
Models were established for each group of animals, and drugs were started on the first day of modeling. The model control group (FDM), positive control group (FDM+atropine), and bencycloquidium bromide group (FDM+the eye drops of bencycloquidium bromide) were given blank solvent, 0.05% atropine, and 0.05% eye drops of bencycloquidium bromide by instillation into the conjunctival sac, once a day, 20 L/eye, for a total of four weeks. Among them, the component of the blank solvent is water for injection; the components of 0.05% atropine using water for injection as solvent comprises 0.05% of atropine, 1.0% of polyvinyl alcohol, and 0.02% of benzalkonium chloride; and the osmotic pressure regulator is sodium chloride, and the osmolality of the eye drops is adjusted to 300 to 320 mOsmol/kg, and the pH regulator is phosphate buffer (NaH2PO4—Na2HPO4), which is used to adjust the pH value of the eye drops to 6.8.
The detection indicators were as follows: • (1) Animals are generally observed clinically once a day. • (2) Animal body weight is measured upon receipt, on the 7th and 14th days of quarantine, and twice a week after modeling. • (3) The anterior chamber depth, lens thickness, vitreous cavity depth and ocular axial length were checked before modeling and once a week after administration. • (4) The diopter was checked before modeling and once a week after administration.

C[N+]12CCC(CC1)C(OCC(O)(c1ccccc1)C1CCCC1)C2 (stereo not drawn) [bencycloquidium bromide]
change value of ocular axial length (guinea pig FDM model): significantly reduced; also recorded: significantly inhibit
trend of diopter decline (guinea pig FDM model, 0.05% eye drops per day during four-week modeling period): significantly inhibit the trend of diopter decline
body weight (guinea pig FDM model): no significant difference in body weight
preventive effect on myopia (guinea pig FDM myopia model): significant preventive effect

CN1[C@@H]2CC[C@H]1C[C@@H](OC(=O)C(CO)c1ccccc1)C2 (stereo partly drawn) [atropine]
change value of ocular axial length (guinea pig FDM model): significantly reduced
body weight (guinea pig FDM model): no significant difference in body weight
